Experimental data: patent US20240400561A1, “NOVEL SUBSTITUTED SULFONYLUREA COMPOUNDS AS INHIBITORS OF INTERLEUKIN-1 ACTIVITY” (Viva Star Biosciences (Suzhou) Co., Ltd., priority 2021, published 2024)

Biological target: T1, NLRP3 (Homo sapiens, UniProt Q96P20)
T1 construct: Seed THP-1 cells (5.56*10^5 cells/mL) containing 1.0 ug/mL LPS; endogenous in cells; host or cells: THP-1 cells
Assay: THP-1 cell assay (LPS priming, nigericin), IL1β release by HTRF; called pyroptosis assay, THP IC50
Type: cell-based
Details: NLRP3 inhibitory activity; THP-1 cells, 1.0 ug/mL LPS, compound 3 hrs, nigericin 5 uM 1 hr, IL1β in supernatant
Experimental: The following method was used for compound screening. • 1. Seed THP-1 cells (5.56*10^5 cells/mL) containing 1.0 ug/mL LPS (SIGMA, L6529) in 45 uL RPMI 1640 medium (without FBS) into 384-well plate (Thermo Scientific, 164688). • 2. Add 5 uL compound (10 doses starting from 5 uM, 1:3 dilution) or vehicle (0.05% DMSO in medium) to the appropriate wells. • 3. Centrifuge the plates at 1000 rpm for 2 mins and incubate for 3 hrs at 37° C., 5% CO2. • 4. Add 5 uL nigericin (MEC, HY-100381) (final conc. 5 uM) to sample wells and positive control wells; add 5 uL RPMI 1640 medium to negative control wells. • 5. Centrifuge plates at 1000 rpm for 2 mins and incubate for 1 hr at 37° C., 5% CO2. • 6. At the end of the incubation period, centrifuge plates at 1000 rpm for 6 mins and transfer 8 uL supernatant into 384-well assay plates (PerkinElmer, 6008280). • 7. Add 8 ul RPMI 1640 medium into each well and spin down for 10 secs. • 8. Prepare the standard solutions and pre-mixed IL1β antibody solution of Human […] kits (PerkinElmer, 62HIL1BPEH) according to the instruction. • 9. Add 16 uL standard solutions into clear wells of 384-well assay plates. • 10. Add 4 uL pre-mixed IL1β antibody solution to all wells including sample wells, positive control wells, negative control wells and standard solutions wells. • 11. Seal the plates, spin down for 10 secs, incubation for overnight at RT and read on an HTRF® compatible reader (BMG LABTECH, PHERAstar FS). • 12. The concentrations of IL1β for treated wells are calculated by the standard curve. • 13. The IC50 data is fitted to a non-liner regression equation (log inhibitor vs. response—Variable slope four parameters)).

T1 sequence (Q96P20 whole entry): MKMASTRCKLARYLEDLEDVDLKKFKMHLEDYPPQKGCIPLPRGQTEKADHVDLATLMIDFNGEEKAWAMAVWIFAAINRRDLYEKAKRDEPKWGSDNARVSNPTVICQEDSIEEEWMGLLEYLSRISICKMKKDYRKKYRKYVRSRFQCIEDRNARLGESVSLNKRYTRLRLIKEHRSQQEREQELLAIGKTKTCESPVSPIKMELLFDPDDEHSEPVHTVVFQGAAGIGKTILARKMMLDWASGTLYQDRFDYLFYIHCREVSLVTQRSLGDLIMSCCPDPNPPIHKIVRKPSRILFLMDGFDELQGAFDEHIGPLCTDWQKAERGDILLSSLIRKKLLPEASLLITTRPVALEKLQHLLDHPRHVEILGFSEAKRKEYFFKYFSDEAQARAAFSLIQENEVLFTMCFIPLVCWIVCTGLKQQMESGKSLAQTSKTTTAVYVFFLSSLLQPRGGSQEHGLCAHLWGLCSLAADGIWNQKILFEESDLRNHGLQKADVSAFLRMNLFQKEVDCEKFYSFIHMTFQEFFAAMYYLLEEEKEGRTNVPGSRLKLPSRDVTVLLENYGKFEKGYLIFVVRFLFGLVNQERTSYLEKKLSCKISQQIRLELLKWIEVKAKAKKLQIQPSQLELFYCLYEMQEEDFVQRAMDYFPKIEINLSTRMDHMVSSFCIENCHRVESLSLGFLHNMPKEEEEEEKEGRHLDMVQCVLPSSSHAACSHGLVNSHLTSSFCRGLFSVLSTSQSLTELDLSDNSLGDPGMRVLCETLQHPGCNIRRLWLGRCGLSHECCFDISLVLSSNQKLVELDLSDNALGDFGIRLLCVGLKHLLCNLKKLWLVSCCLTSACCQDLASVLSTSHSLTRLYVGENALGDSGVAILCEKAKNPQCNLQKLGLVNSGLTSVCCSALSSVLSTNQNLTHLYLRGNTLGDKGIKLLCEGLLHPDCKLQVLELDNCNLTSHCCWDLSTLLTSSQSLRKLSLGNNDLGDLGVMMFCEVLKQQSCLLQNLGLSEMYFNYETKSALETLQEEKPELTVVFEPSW

SMILES | IC50
CC(C)(O)c1csc(S(=O)(=O)NC(=O)Nc2c(-c3ccn4ccnc4c3)ccc3c2CCC3)c1 [Example 42, 4-(2-hydroxypropan-2-yl)-N-((5-(imidazo[1,2-a]pyridin-7-yl)-2,3-dihydro-1H-inden-4-yl)carbamoyl)thiophene-2-sulfonamide] | ≤ 30 nM
Cn1ccc2cc(-c3ccc4c(c3NC(=O)NS(=O)(=O)c3cc(C(C)(C)O)cs3)CCC4)cnc21 [Example 44, 4-(2-hydroxypropan-2-yl)—N-((5-(1-methyl-1H-pyrrolo[2,3-b]pyridin-5-yl)-2,3-dihydro-1H-inden-4-yl)carbamoyl)thiophene-2-sulfonamide] | 30 to 300 nM
CC(C)(O)c1csc(S(=O)(=O)NC(=O)Nc2c(-c3cncc4[nH]ccc34)ccc3c2CCC3)c1 [Example 45, N-((5-(1H-pyrrolo[2,3-c]pyridin-4-yl)-2,3-dihydro-1H-inden-4-yl)carbamoyl)-4-(2-hydroxypropan-2-yl)thiophene-2-sulfonamide] | 300 to 1000 nM
CC(C)(O)c1csc(S(=O)(=O)NC(=O)Nc2c(-c3cnc4[nH]ccc4c3)ccc3c2CCC3)c1 [Example 46, N-((5-(1H-pyrrolo[2,3-b]pyridin-5-yl)-2,3-dihydro-1H-inden-4-yl)carbamoyl)-4-(2-hydroxypropan-2-yl)thiophene-2-sulfonamide] | 30 to 300 nM
Cn1ccc2c(-c3ccc4c(c3NC(=O)NS(=O)(=O)c3cc(C(C)(C)O)cs3)CCC4)cncc21 [Example 47, 4-(2-hydroxypropan-2-yl)-N-((5-(1-methyl-1H-pyrrolo[2,3-c]pyridin-4-yl)-2,3-dihydro-1H-inden-4-yl)carbamoyl)thiophene-2-sulfonamide] | 300 to 1000 nM
CC(C)n1ccc(S(=O)(=O)NC(=O)Nc2c(-c3ccnc4c3ccn4C)ccc3c2CCC3)n1 [Example 50, 1-isopropyl-N-((5-(1-methyl-1H-pyrrolo[2,3-b]pyridin-4-yl)-2,3-dihydro-1H-inden-4-yl)carbamoyl)-1H-pyrazole-3-sulfonamide] | 300 to 1000 nM
CC(C)(O)c1csc(S(=O)(=O)NC(=O)Nc2c(-c3ccc4ncnn4c3)ccc3c2CCC3)c1 [Example 52, N-((5-([1,2,4]triazolo[1,5-a]pyridin-6-yl)-2,3-dihydro-1H-inden-4-yl)carbamoyl)-4-(2-hydroxypropan-2-yl)thiophene-2-sulfonamide] | ≤ 30 nM
CC(C)(O)c1csc(S(=O)(=O)NC(=O)Nc2c(-c3ccn4ncnc4c3)ccc3c2CCC3)c1 [Example 53, N-((5-([1,2,4]triazolo[1,5-a]pyridin-7-yl)-2,3-dihydro-1H-inden-4-yl)carbamoyl)-4-(2-hydroxypropan-2-yl)thiophene-2-sulfonamide] | ≤ 30 nM
CC(C)(O)c1csc(S(=O)(=O)NC(=O)Nc2c(-c3ccnc4c3ccn4C3CCOC3)ccc3c2CCC3)c1 (stereo not shown) [Example 58, 4-(2-hydroxypropan-2-yl)-N-((5-(1-(tetrahydrofuran-3-yl)-1H-pyrrolo[2,3-b]pyridin-4-yl)-2,3-dihydro-1H-inden-4-yl)carbamoyl)thiophene-2-sulfonamide] | 30 to 300 nM
CC(C)(O)c1csc(S(=O)(=O)NC(=O)Nc2c(-c3ccn4nccc4c3)ccc3c2CCC3)c1 [Example 60, 4-(2-hydroxypropan-2-yl)-N-((5-(pyrazolo[1,5-a]pyridin-5-yl)-2,3-dihydro-1H-inden-4-yl)carbamoyl)thiophene-2-sulfonamide] | ≤ 30 nM

Further lines, results first:

IC50 | SMILES
≤ 30 nM | CC(C)(O)c1csc(S(=O)(=O)NC(=O)Nc2c(-c3ccnc4[nH]ccc34)ccc3c2CCC3)c1 [Example 40, N-((5-(1H-pyrrolo[2,3-b]pyridin-4-yl)-2,3-dihydro-1H-inden-4-yl)carbamoyl)-4-(2-hydroxypropan-2-yl)thiophene-2-sulfonamide]
≤ 30 nM | Cn1ccc2c(-c3ccc4c(c3NC(=O)NS(=O)(=O)c3cc(C(C)(C)O)cs3)CCC4)ccnc21 [Example 41, 4-(2-hydroxypropan-2-yl)-N-((5-(1-methyl-1H-pyrrolo[2,3-b]pyridin-4-yl)-2,3-dihydro-1H-inden-4-yl)carbamoyl)thiophene-2-sulfonamide]
300 to 1000 nM | Cn1cnc2ccc(-c3ccc4c(c3NC(=O)NS(=O)(=O)c3cc(C(C)(C)O)cs3)CCC4)cc21 [Example 43, 4-(2-hydroxypropan-2-yl)-N-((5-(1-methyl-1H-benzo[d]imidazol-6-yl)-2,3-dihydro-1H-inden-4-yl)carbamoyl)thiophene-2-sulfonamide]
30 to 300 nM | Cn1ncc2c(-c3ccc4c(c3NC(=O)NS(=O)(=O)c3cc(C(C)(C)O)cs3)CCC4)ccnc21 [Example 48, 4-(2-hydroxypropan-2-yl)-N-((5-(1-methyl-1H-pyrazolo[3,4-b]pyridin-4-yl)-2,3-dihydro-1H-inden-4-yl)carbamoyl)thiophene-2-sulfonamide]
30 to 300 nM | CC(C)(O)c1csc(S(=O)(=O)NC(=O)Nc2c(-c3ccnc4c3ccn4C3CC3)ccc3c2CCC3)c1 [Example 49, N-((5-(1-cyclopropyl-1H-pyrrolo[2,3-b]pyridin-4-yl)-2,3-dihydro-1H-inden-4-yl)carbamoyl)-4-(2-hydroxypropan-2-yl)thiophene-2-sulfonamide]
≤ 30 nM | CC(C)(O)c1csc(S(=O)(=O)NC(=O)Nc2c(-c3ccc4nccn4c3)ccc3c2CCC3)c1 [Example 51, 4-(2-hydroxypropan-2-yl)-N-((5-(imidazo[1,2-a]pyridin-6-yl)-2,3-dihydro-1H-inden-4-yl)carbamoyl)thiophene-2-sulfonamide]
≤ 30 nM | CC(C)(O)c1csc(S(=O)(=O)NC(=O)Nc2c(-c3ccn4cncc4c3)ccc3c2CCC3)c1 [Example 54, 4-(2-hydroxypropan-2-yl)-N-((5-(imidazo[1,5-a]pyridin-7-yl)-2,3-dihydro-1H-inden-4-yl)carbamoyl)thiophene-2-sulfonamide]
300 to 1000 nM | CN1CCC(n2ccc3c(-c4ccc5c(c4NC(=O)NS(=O)(=O)c4cc(C(C)(C)O)cs4)CCC5)ccnc32)CC1 [Example 55, 4-(2-hydroxypropan-2-yl)-N-((5-(1-(1-methylpiperidin-4-yl)-1H-pyrrolo[2,3-b]pyridin-4-yl)-2,3-dihydro-1H-inden-4-yl)carbamoyl)thiophene-2-sulfonamide]
30 to 300 nM | CC(C)(O)c1csc(S(=O)(=O)NC(=O)Nc2c(-c3ccnc4c3ccn4C3CCOCC3)ccc3c2CCC3)c1 [Example 56, 4-(2-hydroxypropan-2-yl)-N-((5-(1-(tetrahydro-2H-pyran-4-yl)-1H-pyrrolo[2,3-b]pyridin-4-yl)-2,3-dihydro-1H-inden-4-yl)carbamoyl)thiophene-2-sulfonamide]
300 to 1000 nM | CN1CCC(n2ccc3c(-c4ccc5c(c4NC(=O)NS(=O)(=O)c4cc(C(C)(C)O)cs4)CCC5)ccnc32)C1 (stereo not shown) [Example 57, 4-(2-hydroxypropan-2-yl)-N-((5-(1-(1-methylpyrrolidin-3-yl)-1H-pyrrolo[2,3-b]pyridin-4-yl)-2,3-dihydro-1H-inden-4-yl)carbamoyl)thiophene-2-sulfonamide]
30 to 300 nM | CC(C)(O)c1csc(S(=O)(=O)NC(=O)Nc2c(-c3ccnc4c3ccn4C3COC3)ccc3c2CCC3)c1 [Example 59, 4-(2-hydroxypropan-2-yl)-N-((5-(1-(oxetan-3-yl)-1H-pyrrolo[2,3-b]pyridin-4-yl)-2,3-dihydro-1H-inden-4-yl)carbamoyl)thiophene-2-sulfonamide]
300 to 1000 nM | CC(C)(O)c1csc(S(=O)(=O)NC(=O)Nc2c(-c3ccc4nncn4c3)ccc3c2CCC3)c1 [Example 61]
